Measured values: US20250304567A1, “PYRROLIDIONE DERIVATIVES AS INHIBITORS OF NF KAPPA B INDUCING KINASE” (priority 2022, published 2025)
Like-named read-outs stand apart in the source and are kept apart here.

Key:
[1] = molecular target: Recombinant Human NF-kappaB-Inducing Kinase (NIK/MAP3K14) (Homo sapiens, UniProt Q99558); experiment: Inhibition of auto-phosphorylation of recombinant human NIK/MAP3K14 activity (AlphaScreen); assay type: biochemical; details: 5 μM ATP, 1 nM NIK, average if tested more than once
Chain of Recombinant Human NF-kappaB-Inducing Kinase (NIK/MAP3K14) (Q99558 whole entry): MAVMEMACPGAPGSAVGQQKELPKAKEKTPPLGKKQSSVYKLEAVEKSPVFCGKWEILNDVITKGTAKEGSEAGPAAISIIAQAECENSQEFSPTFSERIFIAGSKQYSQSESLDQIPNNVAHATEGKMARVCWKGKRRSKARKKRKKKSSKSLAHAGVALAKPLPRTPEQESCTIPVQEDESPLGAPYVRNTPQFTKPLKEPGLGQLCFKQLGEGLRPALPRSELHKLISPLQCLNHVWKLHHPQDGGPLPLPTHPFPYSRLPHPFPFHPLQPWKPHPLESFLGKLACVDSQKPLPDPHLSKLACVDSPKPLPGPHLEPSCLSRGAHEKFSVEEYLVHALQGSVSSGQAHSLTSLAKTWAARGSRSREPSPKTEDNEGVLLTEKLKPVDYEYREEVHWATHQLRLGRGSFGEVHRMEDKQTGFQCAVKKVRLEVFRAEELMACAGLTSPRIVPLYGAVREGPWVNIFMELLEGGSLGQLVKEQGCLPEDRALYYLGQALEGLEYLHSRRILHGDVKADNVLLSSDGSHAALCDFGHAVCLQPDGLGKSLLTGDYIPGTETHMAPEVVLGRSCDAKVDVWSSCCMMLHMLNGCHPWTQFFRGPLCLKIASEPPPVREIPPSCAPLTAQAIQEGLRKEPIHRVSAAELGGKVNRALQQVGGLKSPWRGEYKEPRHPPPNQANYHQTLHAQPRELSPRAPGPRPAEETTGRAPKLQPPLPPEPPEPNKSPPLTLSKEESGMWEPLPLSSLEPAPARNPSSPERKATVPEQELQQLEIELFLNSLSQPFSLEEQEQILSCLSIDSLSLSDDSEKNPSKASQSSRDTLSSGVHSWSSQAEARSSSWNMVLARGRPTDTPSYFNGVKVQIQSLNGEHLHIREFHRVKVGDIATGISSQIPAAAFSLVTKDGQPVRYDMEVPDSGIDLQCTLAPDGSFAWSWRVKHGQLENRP
Description: Assay 1: Inhibition of Auto-Phosphorylation of Recombinant Human NF-kappaB-Inducing Kinase (NIK/MAP3K14) Activity (AlphaScreen™)
NIK/MAP3K14 auto-phosphorylation activity was measured using the AlphaScreen™ (αscreen) format (Perkin Elmer). All compounds tested were dissolved in dimethyl sulfoxide (DMSO) and further dilutions were made in assay buffer. The final DMSO concentration was 0.7% (v/v) in assays. The assay buffer was 50 mM Tris pH 7.5 containing 1 mM EGTA (ethylene glycol tetraacetic acid), 1 mM DTT (dithiothreitol), 0.1 mM Na3VO4, 5 mM MgCl2, and 0.01% Tween®20. The assays were carried out in 384 well Proxiplates (Perkin Elmer). The incubations consisted of the compound, 5 μM Adenosine-5′-triphosphate (ATP), and 1 nM NIK/MAP3K14. Incubations were initiated by the addition of GST-tagged NIK/MAP3K14 enzyme, carried out for 2 h at 25° C. and terminated by addition of stop buffer containing anti-phospho-IKK Ser176/180 antibody. Protein A Acceptor and Glutathione-Donor beads were added before reading using an EnVision Multilabel Plate Reader (Perkin Elmer). The signal obtained in the wells was normalized using high (full enzyme activity, 0.7% DMSO) and low controls (no enzyme activity, 0.7% DMSO, no ATP). IC50's were determined by fitting a sigmoidal curve to % inhibition of control versus Log10 compound concentration.

[2] = test system: p-IKKa levels in L363 (NIK translocated multiple myeloma) cells; experiment: Effect of compounds on p-IKKa levels in L363 (NIK translocated multiple myeloma) cells (AlphaLISA SureFire Ultra p-IKKa Ser176/180); assay type: cell-based, human; details: average if tested more than once, read-out: Assay 2 IC50
Description: Assay 2: Effect of Compounds on p-IKKa Levels in L363 (NIK Translocated Multiple Myeloma) Cells
All compounds tested were dissolved and serially diluted in DMSO, 1:3 dilution for 11 points in an Echo compatible plate. 100% DMSO was added to columns 12 and 24 of the plate to serve as high and low signal controls. This compound plate was used to spot 20 nL of compound or DMSO into a Greiner 384 well TC plate (781080). The final DMSO concentration was 0.3% (v/v) in cell assays. Human L363 cells (ATCC) were cultured in RPM11640 medium supplemented with GlutaMax, non-essential amino acids, sodium pyruvate and 10% fetal bovine serum. Cells were routinely maintained at densities of 0.2×10^6 cells per ml-2×10^6 cells per mL at 37° C. in a humidified 5% CO2 atmosphere incubator. Cells were passaged twice a week splitting back to obtain the low density. The day before the assay, cells were washed twice in HBSS (Hank's Balanced Salt Solution), resuspended in Dulbecco's Modified Eagle Medium (DMEM)+0.5% IgG and protease free BSA (Jackson Immuno Research Laboratories), +/−250 ng/ml recombinant human B-cell activating factor (BAFF/BLyS/TNFSF13B) and incubated overnight at 37° C. in a humidified 5% CO2 atmosphere (bulk stimulation with or without BAFF). The next day, the cell concentration was adjusted to 1×10^7 cells/ml in DMEM+/−250 ng/ml BAFF+/−10 μM MG132 and plated at 10 μl/well into compound or DMSO spotted 384 well TC plates. Seeded cells were incubated at 37° C. in a humidified 5% CO2 atmosphere for 6 h. After 6 h, the plates were removed from the incubator and cell lysis was achieved by the addition of 2.5 μl 5× lysis buffer containing protease and phosphatase inhibitors, followed by shaking on a plate shaker at room temperature for 15 min. At the end of this incubation, lysed cells were sequentially treated and incubated with acceptor and donor bead mixes according to the manufacturer's protocol for a 1 plate/2-incubation suspension cell assay (AlphaLISA SureFire Ultra p-IKKa (Ser 176/180) Assay Kit (Perkin Elmer). Plates were read using an EnVision Multilabel Plate Reader (Perkin Elmer). Within an experiment, a concentration response curve for each compound was run in duplicate. The signal obtained in the test wells was normalized using high signal (BAFF stimulated cells, DMSO, MG132) and low signal (unstimulated cells, DMSO) controls. To determine the IC50, a sigmoidal curve was fitted to the plot of % inhibition versus Log10 compound concentration.

[3] = Homo sapiens, L-363, p-IKKa levels in L363 cells

In the case of `COCCn1nc(C)cc1Nc1nccc(-c2csc(-c3cccc([C@]4(O)CCN(C)C4=O)c3)n2)n1` [Example 107, (R)-3-hydroxy-3-(3-(4-(2-((1-(2-methoxyethyl)-3-methyl-1H-pyrazol-5-yl)amino)pyrimidin-4-yl)thiazol-2-yl)phenyl)-1-methylpyrrolidin-2-one], the IC50 [1] is reported as over 501 nM and the IC50 [2, 3] is reported as over 501 nM.

`CN1CC[C@@](O)(c2cccc(-c3ccn(-c4ccnc(NC5COC5)n4)n3)c2)C1=O` [Example 132, (R)-3-hydroxy-1-methyl-3-(3-(1-(2-(oxetan-3-ylamino)pyrimidin-4-yl)-1H-pyrazol-3-yl)phenyl)pyrrolidin-2-one] gave an IC50 [1] of under 100 nM and an IC50 [2, 3] of 100 to 500 nM.

In the case of `CN1CC[C@@](O)(c2cccc(-c3nc(-c4ccnc(Nc5ccn(C)n5)n4)cs3)c2)C1=O` [Example 56, (R)-3-hydroxy-1-methyl-3-(3-(4-(2-((1-methyl-1H-pyrazol-3-yl)amino)pyrimidin-4-yl)thiazol-2-yl)phenyl)pyrrolidin-2-one], the IC50 [1] is reported as under 100 nM and the IC50 [2, 3] is reported as 100 to 500 nM.

`CN1CC[C@@](O)(c2cccc(-c3nc(-c4ccnc(Nc5cnn(C6CCOCC6)c5)n4)cs3)c2)C1=O` [Example 273, (R)-3-Hydroxy-1-methyl-3-(3-(4-(2-((1-(tetrahydro-2H-pyran-4-yl)-1H-pyrazol-4-yl)amino)pyrimidin-4-yl)thiazol-2-yl)phenyl)pyrrolidin-2-one] gave an IC50 [1] of under 100 nM and an IC50 [2, 3] of under 100 nM.

`Cc1cnc(Nc2ccn(C)n2)nc1-c1csc(-c2cccc([C@]3(O)CCN(C)C3=O)c2)n1` [Example 16, (R)-3-Hydroxy-1-methyl-3-(3-(4-(5-methyl-2-((1-methyl-1H-pyrazol-3-yl)amino)pyrimidin-4-yl)thiazol-2-yl)phenyl)pyrrolidin-2-one] gave an IC50 [1] of 100 to 500 nM and an IC50 [2, 3] of over 501 nM.

`CN1CC[C@@](O)(c2cccc(-c3nc(-c4ccnc(NCCC(C)(C)O)n4)cs3)c2)C1=O` [Example 239] was tested, and the IC50 [1] was 100 to 500 nM and the IC50 [2, 3] was over 501 nM.

`CN1CC[C@@](O)(c2cccc(-c3nc(-c4ccnc(Nc5ccn(C)n5)n4)co3)c2)C1=O` [Example 1, (R)-3-hydroxy-1-methyl-3-(3-(4-(2-((1-methyl-1H-pyrazol-3-yl)amino)pyrimidin-4-yl)oxazol-2-yl)phenyl)pyrrolidin-2-one] gave an IC50 [1] of under 100 nM and an IC50 [2, 3] of 100 to 500 nM.

Molecule `CN1CC[C@@](O)(c2cccc(-c3nc(-c4ccnc(NCc5ccn(C)n5)n4)cs3)c2)C1=O` [Example 184] has an IC50 [1] of under 100 nM and an IC50 [2, 3] of over 501 nM.

With `Cc1ccnc(CNc2nccc(-c3csc(-c4cccc([C@]5(O)CCN(C)C5=O)c4)n3)n2)n1` [Example 114, (R)-3-hydroxy-1-methyl-3-(3-(4-(2-(((4-methylpyrimidin-2-yl)methyl)amino)pyrimidin-4-yl)thiazol-2-yl)phenyl)pyrrolidin-2-one] the IC50 [1] was 100 to 500 nM and the IC50 [2, 3] was over 501 nM.

`CN1CC[C@@](O)(c2ccnc(-c3ccn(-c4ccnc(Nc5cn(CC(F)F)nc5OC5CC5)n4)n3)c2)C1=O` (single isomer, unassigned) [Example 154, (R)-3-(2-(1-(2-((3-cyclopropoxy-1-(2,2-difluoroethyl)-1H-pyrazol-4-yl)amino)pyrimidin-4-yl)-1H-pyrazol-3-yl)pyridin-4-yl)-3-hydroxy-1-methylpyrrolidin-2-one or (S)-3-(2-(1-(2-((3-cyclopropoxy-1-(2,2-difluoroethyl)-1H-pyrazol-4-yl)amino)pyrimidin-4-yl)-1H-pyrazol-3-yl)pyridin-4-yl)-3-hydroxy-1-methylpyrrolidin-2-one] was tested, and the IC50 [1] was under 100 nM and the IC50 [2, 3] was under 100 nM.

For `CN1CC[C@@](O)(c2cccc(-c3csc(-c4ccnc(Nc5cnn(C6CCS(=O)(=O)CC6)c5)n4)n3)c2)C1=O` [Example 88, (R)-3-(3-(2-(2-((1-(1,1-dioxidotetrahydro-2H-thiopyran-4-yl)-1H-pyrazol-4-yl)amino)pyrimidin-4-yl)thiazol-4-yl)phenyl)-3-hydroxy-1-methylpyrrolidin-2-one], the IC50 [1] was under 100 nM and the IC50 [2, 3] was 100 to 500 nM.

With `Cc1cccc(CNc2nccc(-c3csc(-c4cccc([C@]5(O)CCN(C)C5=O)c4)n3)n2)n1` [Example 205] the IC50 [1] was under 100 nM and the IC50 [2, 3] was over 501 nM.

In the case of `CC(Nc1nccc(-c2csc(-c3cccc([C@]4(O)CCN(C)C4=O)c3)n2)n1)c1nc2ccccc2[nH]1` (stereo partly drawn) [Example 45, (R)-3-(3-(4-(2-(((R,S)-1-(1H-benzo[d]imidazol-2-yl)ethyl)amino)pyrimidin-4-yl)thiazol-2-yl)phenyl)-3-hydroxy-1-methylpyrrolidin-2-one], the IC50 [1] is reported as under 100 nM and the IC50 ([2]; p-IKKa levels in L363 cells) is reported as over 501 nM.

With `CN1CC[C@@](O)(c2cccc(-c3nc(-c4ccnc(Nc5nccc(C(F)(F)F)n5)n4)cs3)c2)C1=O` [Example 165, (R)-3-Hydroxy-1-methyl-3-(3-(4-(2-((4-(trifluoromethyl)pyrimidin-2-yl)amino)pyrimidin-4-yl)thiazol-2-yl)phenyl)pyrrolidin-2-one] the IC50 [1] was 100 to 500 nM and the IC50 [2, 3] was over 501 nM.

Molecule `CN1CC[C@@](O)(c2cccc(-c3nc(-c4ccnc(N[C@H]5CCC[C@@H](O)C5)n4)cs3)c2)C1=O` [Example 255] has an IC50 [1] of 100 to 500 nM and an IC50 [2, 3] of over 501 nM.

With `CN1CCC(n2cc(Nc3nccc(-c4nc(-c5cccc([C@]6(O)CCN(C)C6=O)c5)cs4)n3)cn2)CC1` [Example 87, (R)-3-hydroxy-1-methyl-3-(3-(2-(2-((1-(1-methylpiperidin-4-yl)-1H-pyrazol-4-yl)amino)pyrimidin-4-yl)thiazol-4-yl)phenyl)pyrrolidin-2-one] the IC50 [1] was under 100 nM and the IC50 [2, 3] was 100 to 500 nM.

`CN1CCO[C@@H](CNc2nccc(-c3csc(-c4cccc([C@]5(O)CCN(C)C5=O)c4)n3)n2)C1` [Example 213] was tested, and the IC50 [1] was over 501 nM and the IC50 [2, 3] was over 501 nM.

`CN1CC[C@@](O)(c2cccc(-c3nc(-c4ccnc(NCCc5cnn(C)c5)n4)cs3)c2)C1=O` [Example 187] was tested, and the IC50 [1] was under 100 nM and the IC50 [2, 3] was over 501 nM.

Work on `CN1CC[C@@](O)(c2cccc(-c3nc(-c4ccnc(NCc5ccncn5)n4)cs3)c2)C1=O` [Example 217] yielded an IC50 [1] of 100 to 500 nM and an IC50 [2, 3] of over 501 nM.

Molecule `C[C@H](Nc1nccc(-c2csc(-c3cccc([C@]4(O)CCN(C)C4=O)c3)n2)n1)c1ccccn1` [Example 186] has an IC50 [1] of 100 to 500 nM and an IC50 [2, 3] of over 501 nM.

`CN1CC[C@@](O)(c2cccc(-c3nc(-c4ccnc(NC5(c6ccccn6)CC5)n4)cs3)c2)C1=O` [Example 224] showed an IC50 [1] of 100 to 500 nM and an IC50 [2, 3] of over 501 nM.

In the case of `CN1CC[C@@](O)(c2cccc(-c3csc(-c4ccnc(Nc5cnn6cccnc56)n4)n3)c2)C1=O` [Example 85, (R)-3-hydroxy-1-methyl-3-(3-(2-(2-(pyrazolo[1,5-a]pyrimidin-3-ylamino)pyrimidin-4-yl)thiazol-4-yl)phenyl)pyrrolidin-2-one], the IC50 [1] is reported as under 100 nM and the IC50 [2, 3] is reported as under 100 nM.

`Cc1cc(Nc2nccc(-c3csc(-c4cccc([C@]5(O)CCN(C)C5=O)c4)n3)n2)c(=O)n(C)c1` [Example 14, (R)-3-((4-(2-(3-(3-Hydroxy-1-methyl-2-oxopyrrolidin-3-yl)phenyl)thiazol-4-yl)pyrimidin-2-yl)amino)-1,5-dimethylpyridin-2(1H)-one] showed an IC50 [1] of under 100 nM and an IC50 [2, 3] of 100 to 500 nM.

With `CC(Nc1nccc(-c2nc(-c3cccc(C4(O)CCN(C)C4=O)c3)cs2)n1)c1ccn(C)n1` (single isomer, unassigned) [Example 51] the IC50 [1] was under 100 nM and the IC50 ([2]; p-IKKa levels in L363 cells) was 100 to 500 nM.
